Laboratory results: publication PMC4850273 (mBio, 2016)

Biological target: T1, SGBP-A (Bacteroides ovatus, UniProt A7LXT5)
T1 sequence (A7LXT5 28-546): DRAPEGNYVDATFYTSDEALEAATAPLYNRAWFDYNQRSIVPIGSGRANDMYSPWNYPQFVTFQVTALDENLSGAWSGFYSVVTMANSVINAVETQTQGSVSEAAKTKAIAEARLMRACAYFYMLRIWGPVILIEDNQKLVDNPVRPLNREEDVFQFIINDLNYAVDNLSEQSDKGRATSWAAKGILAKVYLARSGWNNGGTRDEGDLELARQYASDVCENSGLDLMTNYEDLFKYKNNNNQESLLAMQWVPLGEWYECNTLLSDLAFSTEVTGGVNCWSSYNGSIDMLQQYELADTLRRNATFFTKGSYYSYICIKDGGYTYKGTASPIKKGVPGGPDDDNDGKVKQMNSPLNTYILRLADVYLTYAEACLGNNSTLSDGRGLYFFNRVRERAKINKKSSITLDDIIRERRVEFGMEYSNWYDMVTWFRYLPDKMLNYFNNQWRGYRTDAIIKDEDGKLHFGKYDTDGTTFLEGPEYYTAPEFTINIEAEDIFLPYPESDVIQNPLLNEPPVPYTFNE
Assay: ITC
Assay type: binding
Conditions: 25 °C, 20 mM HEPES, 100 mM NaCl, pH 7.0; two titrations

- Ka (M^-1) / SGBP-A: 568.0 ± 291.0
Compound: OC[C@H]1O[C@@H](O[C@H]2[C@H](O)[C@@H](O)[C@H](O[C@H]3[C@H](O)[C@@H](O)[C@H](O[C@H]4[C@H](O)[C@@H](O)[C@H](O[C@H]5[C@H](O)[C@@H](O)[C@H](O[C@H]6[C@H](O)[C@@H](O)C(O)O[C@@H]6CO)O[C@@H]5CO)O[C@@H]4CO)O[C@@H]3CO)O[C@@H]2CO)[C@H](O)[C@@H](O)[C@@H]1O (stereo partly shown) [Cellohexaose]
